Here are results for 3 molecules from publication PMC7436000, “The Spectrum of Design Solutions for Improving the Activity-Selectivity Product of Peptide Antibiotics against Multidrug-Resistant Bacteria and Prostate Cancer PC-3 Cells” (Molecules, 2020).

Data set [1] has as its system E. coli clin. isolate. Format: cell-based, Escherichia coli. Particulars: clin. isolate. The method in brief: (§1)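 Broth microdilution against mid-exponential cells at 5 × 10^5 CFU/mL; clinical isolates are multidrug-resistant, tested in Mueller Hinton medium, while E. coli MG1655 was grown in LB. Peptide was serially 2-fold diluted from 64 μM to 0.0625 μM and incubated 18 h to 24 h at 37 °C. MIC = lowest concentration without visible growth.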

The test system of data set [2] is P. aerug. clin. isolate. Format: cell-based, Pseudomonas aeruginosa. An outline of the steps:
as §1

In data set [3] the test system is K. pneum. clin. isolate. Format: cell-based, Klebsiella pneumoniae. An outline of the steps:
as §1

In data set [4] the test system is Acinetobacter baumannii (ATCC 19606). It is filed as cell-based. Particulars: ATCC 19606. The method in brief: as §1
Data set [5] deals with Escherichia coli (ATCC 25922). It is filed as cell-based. Particulars: ATCC 25922. An outline of the steps:
as §1

Data set [6] has as its system Escherichia coli MG1655. It is filed as cell-based. Particulars: MG1655. The method in brief:
as §1

In data set [7] the test system is Klebsiella pneumoniae (ATCC 13883). Format: cell-based. Conditions: ATCC 13883. An outline of the steps: as §1
The test system of data set [8] is Pseudomonas aeruginosa (ATCC 27853). It is filed as cell-based. Conditions: ATCC 27853. An outline of the steps: as §1
Data set [9] relates to Staphylococcus aureus (ATCC 29213). Format: cell-based. Particulars: ATCC 29213. The method in brief: as §1
Data set [10] relates to A. baum. clin. isolate. It is filed as cell-based, Acinetobacter baumannii. An outline of the steps:
as §1

Data set [11] has as its system S. aureus clin. isolate. Format: cell-based, Staphylococcus aureus. Particulars: clin. isolate. The method in brief:
as §1

In data set [12] the test system is human erythrocytes. Kind of data set: Hemolysis of human erythrocytes. It is filed as cell-based. Conditions: 1 h.
The subject of data set [13] is human primary dermal fibroblasts. Format: cell-based. Particulars: 24 h.
Data set [14] concerns PC-3 prostate cancer cell line. Format: cell-based, human. Conditions: 24 h.
Data set [15] has as its system human erythrocytes. Kind of data set: Hemolysis of human erythrocytes. Format: cell-based. Conditions: 24 h.
For data set [16], the system named is standard ATCC E. coli. Conditions: cited from earlier work.
Data set [17] deals with standard ATCC S. aureus. Conditions: cited from earlier work.
For data set [18], the system named is lymphoma cell line U937. Details: method as in PMID 21403917. Conditions: read-out: IC50 against lymphoma cell line U937; cited from earlier work.
The conditions of data set [19]: cited from earlier work.
Data set [20] has as its system Gram-negative and Gram-positive bacteria. Particulars: cited from earlier work. From the text: (§2) In the ZYK1 example, the parent peptide already has selective antimicrobial and antitumor activity. […] It follows that the TI for the paren ...
In data set [21] the test system is HeLa (human cervical carcinoma cells) and HL60 (human promyelocytic leukemia cells). Particulars: two selected cancer cell lines; read-out: IC50 against HeLa and HL60; cited from earlier work.
Excerpt: as §2

Data set [22] relates to human neonate chondrocytes. Conditions: cited from earlier work.
Excerpt: as §2

Converted amounts (≈) assume the structure as drawn. Peptide text beside a SMILES is read from it.

For `CC[C@H](C)[C@H](NC(=O)CN)C(=O)NCC(=O)N[C@@H](CCCCN)C(=O)N[C@@H](Cc1ccccc1)C(=O)N[C@@H](CC(C)C)C(=O)N[C@@H](CCCCN)C(=O)N[C@@H](CCCCN)C(=O)N[C@@H](C)C(=O)N[C@@H](CCCCN)C(=O)N[C@@H](CCCCN)C(=O)N[C@@H](Cc1ccccc1)C(=O)NCC(=O)N[C@@H](CCCCN)C(=O)N[C@@H](C)C(=O)N[C@@H](Cc1ccccc1)C(=O)N[C@H](C(=O)N[C@@H](CC(C)C)C(=O)N[C@H](C(=O)N[C@@H](CC(C)C)C(=O)N[C@@H](CCCCN)C(=O)N[C@@H](CCCCN)C(N)=O)[C@@H](C)CC)C(C)C` [PEXA] (H-GIGKFLKKAKKFGKAFVLILKK-NH2), the “MIC (E. coli clin. isolate)” value in data set [1] was 4 µM (≈ 9.85 µg/mL). The “MIC (P. aerug. clin. isolate)” value in data set [2] was found to be 16 µM (≈ 39.4 µg/mL). In addition, the “MIC (K. pneum. clin. isolate)” value in data set [3] is listed as 4 µM (≈ 9.85 µg/mL). Further, the “MIC (A. baum. ATCC 19606)” value in data set [4] fell in the range of 1 to 2 µM. The “MIC (E. coli ATCC 25922)” value in [5] is 0.5 to 1 µM. Moreover, in data set [6], the “MIC (E. coli MG1655)” value came to 4 µM (≈ 9.85 µg/mL). Moreover, in data set [7], the “MIC (K. pneum. ATCC 13883)” value is 2 µM (≈ 4.92 µg/mL). The “MIC (P. aerug. ATCC 27853)” value in data set [8] was 4 µM (≈ 9.85 µg/mL). Besides, the “MIC (S. aureus ATCC 29213)” value in data set [9] is on record as 0.5 µM (≈ 1.23 µg/mL). Also, the “MIC (A. baum. clin. isolate)” value in data set [10] was 1 to 2 µM. Besides, in [11], the “MIC (S. aureus clin. isolate)” value is on record as 2 µM (≈ 4.92 µg/mL). In [12], the HC10 worked out at 1.6 µM and the HC20 is listed as 7 µM. For the same molecule, the IC50 (as a rule, the concentration that gives 50% inhibition) in data set [13] came to 12 µM. In data set [14], the “(TI/ IC50C) vs. MP1” value is listed as 18, the IC50 was 4 µM, the “TI (HC20/IC20C)” value is 6.7 and the “TI (IC50F/IC50C)” value was 3. Moreover, in data set [14], the “TI/ IC50C” value was 0.75. For the same molecule, the “HC50 * (extrapolated)” value in [15] is on record as 520 * µM.

GIGKFLKKAKKFGKAFVKILKK [pexiganan]: the “MIC, standard ATCC E. coli” value in data set [16] is 6.5 µM. In addition, in data set [17], the “MIC, standard ATCC S. aureus” value is 6.5 µM. The IC50 in data set [18] is 4 µM. For the same molecule, the HC50 hemolytic activity in data set [19] was 45 µM.

Regarding “GIIKKIIKKIIKKI-NH2 [already known artificial AMP template of ZYK1]”, the MIC values entry in [20] is reported as “about 10 μM”. The IC50 in data set [21] was 15 to 25 µM; in data set [22] it was greater than 40 µM.
